Laboratory results from the NIST ThermoML archive (doi:10.1021/acs.jced.9b00248).

Assay: mn = molality of the nth substance listed, in mol/kg
Conditions: Liquid; for viscosity: Vibrating wire viscometry; for mass density: Vibrating tube method

[Cl-].[Na+] [sodium chloride] + O
Conditions | mass density [kg/m3] | viscosity [mPa·s]
274.65 K, 1400 kPa, m1 = 0.77 | – | 1.748
274.65 K, 15300 kPa, m1 = 0.77 | – | 1.718
274.65 K, 30200 kPa, m1 = 0.77 | – | 1.704
274.65 K, 50100 kPa, m1 = 0.77 | – | 1.7
274.83 K, 15210 kPa, m1 = 0.77 | 1039.38 | –
274.83 K, 30120 kPa, m1 = 0.77 | 1045.95 | –
274.83 K, 49950 kPa, m1 = 0.77 | 1054.41 | –
274.83 K, 69810 kPa, m1 = 0.77 | 1062.53 | –
274.83 K, 99820 kPa, m1 = 0.77 | 1074.13 | –
274.95 K, 1340 kPa, m1 = 2.5 | 1098.36 | –
274.95 K, 15260 kPa, m1 = 2.5 | 1103.81 | –
274.95 K, 30190 kPa, m1 = 2.5 | 1109.5 | –
274.95 K, 50040 kPa, m1 = 2.5 | 1116.83 | –
274.95 K, 69930 kPa, m1 = 2.5 | 1123.92 | –
274.95 K, 99990 kPa, m1 = 2.5 | 1134.12 | –
296.19 K, 1330 kPa, m1 = 2.5 | 1090.47 | –
296.19 K, 15240 kPa, m1 = 2.5 | 1095.73 | –
296.19 K, 30160 kPa, m1 = 2.5 | 1101.16 | –
296.19 K, 50020 kPa, m1 = 2.5 | 1108.18 | –
296.19 K, 69880 kPa, m1 = 2.5 | 1115.02 | –
296.19 K, 99980 kPa, m1 = 2.5 | 1124.82 | –
296.22 K, 1380 kPa, m1 = 0.77 | 1028.25 | –
296.22 K, 15220 kPa, m1 = 0.77 | 1034.12 | –
296.22 K, 49930 kPa, m1 = 0.77 | 1048.04 | –
296.22 K, 69810 kPa, m1 = 0.77 | 1055.61 | –
296.22 K, 99840 kPa, m1 = 0.77 | 1066.51 | –
323.3 K, 1380 kPa, m1 = 2.5 | 1077.94 | –
323.3 K, 15290 kPa, m1 = 2.5 | 1083.2 | –
323.3 K, 30220 kPa, m1 = 2.5 | 1088.58 | –
323.3 K, 50060 kPa, m1 = 2.5 | 1095.53 | –
323.3 K, 69950 kPa, m1 = 2.5 | 1102.24 | –
323.3 K, 100010 kPa, m1 = 2.5 | 1111.99 | –
323.33 K, 1340 kPa, m1 = 0.77 | 1017.8 | –
323.33 K, 15260 kPa, m1 = 0.77 | 1023.47 | –
323.33 K, 30160 kPa, m1 = 0.77 | 1029.36 | –
323.33 K, 69840 kPa, m1 = 0.77 | 1044.3 | –
323.33 K, 99890 kPa, m1 = 0.77 | 1054.9 | –
348.21 K, 1360 kPa, m1 = 2.5 | 1064.12 | –
348.21 K, 1380 kPa, m1 = 0.77 | 1004.37 | –
348.21 K, 15260 kPa, m1 = 0.77 | 1010.15 | –
348.21 K, 15270 kPa, m1 = 2.5 | 1069.47 | –
348.21 K, 30180 kPa, m1 = 0.77 | 1016.18 | –
348.21 K, 30200 kPa, m1 = 2.5 | 1075.01 | –
348.21 K, 50000 kPa, m1 = 0.77 | 1023.83 | –
348.21 K, 50060 kPa, m1 = 2.5 | 1082.15 | –
348.21 K, 69880 kPa, m1 = 0.77 | 1031.26 | –
348.21 K, 69960 kPa, m1 = 2.5 | 1089.02 | –
348.21 K, 99920 kPa, m1 = 0.77 | 1041.89 | –
348.21 K, 100020 kPa, m1 = 2.5 | 1098.91 | –
348.34 K, 1400 kPa, m1 = 0.77 | – | 0.412
348.34 K, 15300 kPa, m1 = 0.77 | – | 0.416
348.34 K, 30200 kPa, m1 = 0.77 | – | 0.421
348.34 K, 50000 kPa, m1 = 0.77 | – | 0.429
348.34 K, 69900 kPa, m1 = 0.77 | – | 0.433
373.22 K, 1380 kPa, m1 = 2.5 | 1047.69 | –
373.22 K, 15310 kPa, m1 = 2.5 | 1053.49 | –
373.22 K, 30230 kPa, m1 = 2.5 | 1059.36 | –
373.22 K, 50090 kPa, m1 = 2.5 | 1066.79 | –
373.22 K, 69960 kPa, m1 = 2.5 | 1073.94 | –
373.22 K, 100040 kPa, m1 = 2.5 | 1084.13 | –
373.25 K, 1400 kPa, m1 = 0.77 | 988.09 | –
373.25 K, 15310 kPa, m1 = 0.77 | 994.18 | –
373.25 K, 30220 kPa, m1 = 0.77 | 1000.44 | –
373.25 K, 50060 kPa, m1 = 0.77 | 1008.5 | –
373.25 K, 69930 kPa, m1 = 0.77 | 1016.2 | –
373.25 K, 99960 kPa, m1 = 0.77 | 1027.15 | –
373.31 K, 1400 kPa, m1 = 0.77 | – | 0.31
373.31 K, 30200 kPa, m1 = 0.77 | – | 0.318
373.31 K, 50000 kPa, m1 = 0.77 | – | 0.323
373.31 K, 69900 kPa, m1 = 0.77 | – | 0.329
373.31 K, 100000 kPa, m1 = 0.77 | – | 0.338
398.18 K, 1400 kPa, m1 = 0.77 | – | 0.247
398.18 K, 15300 kPa, m1 = 0.77 | – | 0.251
398.18 K, 30200 kPa, m1 = 0.77 | – | 0.256
398.18 K, 50100 kPa, m1 = 0.77 | – | 0.26
398.18 K, 70000 kPa, m1 = 0.77 | – | 0.265
398.18 K, 100000 kPa, m1 = 0.77 | – | 0.273
398.29 K, 1390 kPa, m1 = 2.5 | 1029.58 | –
398.29 K, 15300 kPa, m1 = 2.5 | 1035.58 | –
398.29 K, 30230 kPa, m1 = 2.5 | 1041.92 | –
398.29 K, 50080 kPa, m1 = 2.5 | 1049.89 | –
398.29 K, 69980 kPa, m1 = 2.5 | 1057.41 | –
398.29 K, 100050 kPa, m1 = 2.5 | 1068.15 | –
398.81 K, 1460 kPa, m1 = 0.77 | 969.16 | –
398.81 K, 15370 kPa, m1 = 0.77 | 975.7 | –
398.81 K, 30260 kPa, m1 = 0.77 | 982.49 | –
398.81 K, 50080 kPa, m1 = 0.77 | 991.06 | –
398.81 K, 69950 kPa, m1 = 0.77 | 999.13 | –
398.81 K, 99990 kPa, m1 = 0.77 | 1010.69 | –
423.31 K, 15300 kPa, m1 = 0.77 | – | 0.206
423.31 K, 30200 kPa, m1 = 0.77 | – | 0.212
423.31 K, 50100 kPa, m1 = 0.77 | – | 0.216
423.31 K, 70000 kPa, m1 = 0.77 | – | 0.22
423.31 K, 100000 kPa, m1 = 0.77 | – | 0.228
423.62 K, 1410 kPa, m1 = 2.5 | 1009.24 | –
423.62 K, 15330 kPa, m1 = 2.5 | 1015.81 | –
423.62 K, 30250 kPa, m1 = 2.5 | 1022.75 | –
423.62 K, 50100 kPa, m1 = 2.5 | 1031.25 | –
423.62 K, 69990 kPa, m1 = 2.5 | 1039.38 | –
423.62 K, 100050 kPa, m1 = 2.5 | 1050.77 | –
423.73 K, 1450 kPa, m1 = 0.77 | 947.66 | –
423.73 K, 15370 kPa, m1 = 0.77 | 954.86 | –
423.73 K, 30270 kPa, m1 = 0.77 | 962.29 | –
423.73 K, 50110 kPa, m1 = 0.77 | 971.57 | –
423.73 K, 69960 kPa, m1 = 0.77 | 980.32 | –
423.73 K, 100000 kPa, m1 = 0.77 | 992.59 | –
448.27 K, 30300 kPa, m1 = 0.77 | – | 0.181
448.27 K, 50100 kPa, m1 = 0.77 | – | 0.185
448.27 K, 70000 kPa, m1 = 0.77 | – | 0.19
448.27 K, 100000 kPa, m1 = 0.77 | – | 0.197
448.85 K, 1410 kPa, m1 = 2.5 | 987.39 | –
448.85 K, 15330 kPa, m1 = 2.5 | 994.66 | –
448.85 K, 30260 kPa, m1 = 2.5 | 1002.41 | –
448.85 K, 50110 kPa, m1 = 2.5 | 1011.56 | –
448.97 K, 1460 kPa, m1 = 0.77 | 923.83 | –
448.97 K, 15380 kPa, m1 = 0.77 | 932.02 | –
448.97 K, 30290 kPa, m1 = 0.77 | 940.31 | –
448.97 K, 50120 kPa, m1 = 0.77 | 950.53 | –
448.97 K, 69980 kPa, m1 = 0.77 | 960.05 | –
448.97 K, 100000 kPa, m1 = 0.77 | 973.43 | –
